In patent publication US20190202885A1, “TauT (taurine transporter) peptide cancer vaccine” (priority 2017, published 2019):
Where no end group is shown, it is not given here.

Experiments:
p53^+/− mice = experiment: TauT-peptide vaccination of p53+/− mice: tumor development and lifespan; type: in vivo
Method: FIG. 2A and FIG. 2B. TauT-peptide vaccination prolongs p53^+/− mice lifespan. To evaluate the efficacy of TauT-peptide as a cancer vaccine, p53^+/− (C57BL/6J background) were injected with either TauT-peptide (100 μg/kg) or vehicle only at the age of 4 weeks and boosted 2 weeks later (n=15 for each group). All mice were observed daily for signs of morbidity and the development of tumors. The p53^+/− control mice started to develop tumor (mainly osteosarcoma) at the age of 186 day (FIG. 2A). The median lifespan for p53^+/− control mice was 315 days (FIG. 2B), which consistent with other studies. […] TauT-peptide vaccination delayed tumor develops in all vaccinated p53^+/− mice, which started to develop tumor (mainly osteosarcoma) and died at the age of 526 days (FIG. 2A).
TauT-peptide (SEQ ID NO 3) was coupled to KLH with a kit (Imject SuperCarrier EDC system for Peptides; Pierce). To test TauT-peptide vaccine, p53 knockout (KO) mice were immunized with 100 μg/kg and boosted with an equal amount of antigen 2 weeks late. To develop and test TauT-Ab, wild type control mice were immunized with 100 μg/kg TauT-peptide and boosted with an equal amount of antigen 2 weeks late. Mice were bled on Days 21 and 36 to measure the antibody response. Antisera were collected on Day 49 and purified by affinity column chromatography (Pierce). Antisera were stored at −80° C. Specificity of the antibody was determined by Western blot analysis (10).

p53^−/− mice = experiment: TauT-peptide vaccination of p53−/− mice: tumor development and lifespan; type: in vivo
Method: To evaluate the efficacy of TauT-peptide as a cancer vaccine, p53^−/− (C57BL/6J background) were injected with either TauT-peptide (100 μg/kg) or vehicle only at the age of 4 weeks and boosted 2 weeks later (n=12 for each group). All mice were observed daily for signs of morbidity and the development of tumors.
To test TauT-peptide vaccine, p53 knockout (KO) mice were immunized with 100 μg/kg and boosted with an equal amount of antigen 2 weeks late. […] Mice were bled on Days 21 and 36 to measure the antibody response.
To evaluate the efficacy of TauT-peptide as a cancer vaccine, p53 null (C57BL/6J background) were injected with either TauT-peptide (100 μg/kg) or vehicle only at the age of 4 weeks and boosted 2 weeks later (n=12 for each group). All mice were observed daily for signs of morbidity and the development of tumors.

[1] = p53+/− mice, 100 μg/kg at 4 weeks of age, boosted 2 weeks later, n=15
[2] = p53−/− mice, 100 μg/kg at 4 weeks of age, boosted 2 weeks later
[3] = p53−/− mice, 100 μg/kg at 4 weeks of age, boosted 2 weeks later, n=12

TauT-peptide vaccine: TauT-peptide (SEQ ID NO 3) comprising amino acid residues 313-326 of TauT (SLC6A6), coupled to KLH, used as peptide vaccine (GSYNKYKYNSYRDC; also: coupled to KLH carrier, site not given here)
response to the vaccine (p53^+/− mice; p53+/− mice vaccinated): 100% | age at which mice started to develop tumor (mainly osteosarcoma) and died (p53^+/− mice; [1]): 526 days | median lifespan (p53^+/− mice; [1]): 621 days | response to the vaccine (p53^−/− mice; p53−/− mice vaccinated): 100% | age at which mice started to develop tumor (mainly lymphoma) and died (p53^−/− mice; [2]): 6.3 months | lifespan (p53^−/− mice; [2]): 6.9 months | age at which mice started to develop tumor (mainly lymphoma) (p53^−/− mice; [3]): 189 days | median lifespan (p53^−/− mice; [3]): 207 days | increase of (median) lifespan versus control (p53^−/− mice; p53−/− mice, vaccinated vs vehicle control): 1.5 fold
